This note sets out measurements from publication PMC10175918 (Communications Biology, 2023).

Read-outs that look alike come from different tables or passages of the source.

What all share (test): TGFα-shedding assay-based GPCR screening with chimeric Gα subunit proteins
Common to all, as to type: cell-based

For experiment [1], the target named is T1, 348 GPCRs (Homo sapiens, UniProt P28336).
T1 construct: expressed in transfected cells; host or cells: HEK293A
The note with it: 10µM, Favipiravir 100μM.

Experiment [2] has as its target T2, 348 GPCRs (Homo sapiens, UniProt P41180).
T2 construct: expressed in transfected cells; host or cells: HEK293A
T2 sequence (P41180 20-1078): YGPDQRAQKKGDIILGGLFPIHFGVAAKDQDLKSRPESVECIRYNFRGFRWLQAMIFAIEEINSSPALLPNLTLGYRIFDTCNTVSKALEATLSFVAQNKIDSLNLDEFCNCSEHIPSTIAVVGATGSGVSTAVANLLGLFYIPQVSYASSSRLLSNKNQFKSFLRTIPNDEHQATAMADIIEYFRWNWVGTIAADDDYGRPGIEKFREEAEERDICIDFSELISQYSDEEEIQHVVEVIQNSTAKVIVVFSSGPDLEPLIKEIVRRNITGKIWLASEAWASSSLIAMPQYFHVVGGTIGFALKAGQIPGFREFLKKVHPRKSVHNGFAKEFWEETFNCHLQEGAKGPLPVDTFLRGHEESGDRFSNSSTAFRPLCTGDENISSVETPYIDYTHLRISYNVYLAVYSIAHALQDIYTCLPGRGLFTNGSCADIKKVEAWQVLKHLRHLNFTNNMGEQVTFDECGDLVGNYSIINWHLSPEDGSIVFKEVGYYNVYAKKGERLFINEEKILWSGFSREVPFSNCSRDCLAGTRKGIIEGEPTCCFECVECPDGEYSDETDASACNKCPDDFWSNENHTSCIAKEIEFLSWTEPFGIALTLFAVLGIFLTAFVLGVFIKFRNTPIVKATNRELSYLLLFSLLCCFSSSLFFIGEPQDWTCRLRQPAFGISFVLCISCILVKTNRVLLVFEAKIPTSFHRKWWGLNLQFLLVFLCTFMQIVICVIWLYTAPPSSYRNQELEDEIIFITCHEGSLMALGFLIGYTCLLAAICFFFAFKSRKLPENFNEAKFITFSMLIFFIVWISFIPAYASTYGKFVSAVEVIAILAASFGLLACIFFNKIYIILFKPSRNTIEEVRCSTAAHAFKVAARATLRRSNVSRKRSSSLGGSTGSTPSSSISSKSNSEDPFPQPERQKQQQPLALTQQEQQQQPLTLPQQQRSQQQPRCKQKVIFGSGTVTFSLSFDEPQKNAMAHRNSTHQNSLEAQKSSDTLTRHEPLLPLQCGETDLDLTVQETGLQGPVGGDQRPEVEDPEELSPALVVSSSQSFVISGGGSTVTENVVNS
To be noted: 10µM, Favipiravir 100μM.

In experiment [3] the target is T3, 348 GPCRs (Homo sapiens, UniProt Q01718).
T3 construct: expressed in transfected cells; host or cells: HEK293A
T3 sequence (Q01718 whole entry): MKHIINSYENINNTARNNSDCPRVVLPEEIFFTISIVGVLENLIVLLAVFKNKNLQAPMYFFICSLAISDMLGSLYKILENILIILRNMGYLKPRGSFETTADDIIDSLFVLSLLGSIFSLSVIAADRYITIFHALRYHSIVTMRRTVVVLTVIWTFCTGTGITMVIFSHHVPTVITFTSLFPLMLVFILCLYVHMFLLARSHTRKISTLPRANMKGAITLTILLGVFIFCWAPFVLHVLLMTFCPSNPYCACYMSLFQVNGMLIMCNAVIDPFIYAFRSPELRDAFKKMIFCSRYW

The target of experiment [4] is T4, 348 GPCRs (Homo sapiens, UniProt P30939).
T4 construct: expressed in transfected cells; host or cells: HEK293A
T4 sequence (P30939 1-366): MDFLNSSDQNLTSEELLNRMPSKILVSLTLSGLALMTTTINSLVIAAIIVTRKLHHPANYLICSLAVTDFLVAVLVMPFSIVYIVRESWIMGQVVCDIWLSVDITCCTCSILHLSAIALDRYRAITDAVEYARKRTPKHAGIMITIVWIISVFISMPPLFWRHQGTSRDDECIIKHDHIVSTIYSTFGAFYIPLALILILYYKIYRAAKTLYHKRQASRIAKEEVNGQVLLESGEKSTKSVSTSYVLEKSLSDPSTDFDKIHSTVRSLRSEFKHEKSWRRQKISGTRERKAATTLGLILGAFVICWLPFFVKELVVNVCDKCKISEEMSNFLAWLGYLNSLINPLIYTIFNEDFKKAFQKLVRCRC
To be noted: 5-HT1F (5-hydroxytryptamine receptor 1F); 10µM, Favipiravir 100μM.

Experiment [5] concerns the target T5, 348 GPCRs (Homo sapiens, UniProt P25106).
T5 construct: expressed in transfected cells; host or cells: HEK293A

Experiment [6] addresses T6, 348 GPCRs (Homo sapiens, UniProt Q8IZF3).
T6 construct: expressed in transfected cells; host or cells: HEK293A
T6 sequence (Q8IZF3 22-695): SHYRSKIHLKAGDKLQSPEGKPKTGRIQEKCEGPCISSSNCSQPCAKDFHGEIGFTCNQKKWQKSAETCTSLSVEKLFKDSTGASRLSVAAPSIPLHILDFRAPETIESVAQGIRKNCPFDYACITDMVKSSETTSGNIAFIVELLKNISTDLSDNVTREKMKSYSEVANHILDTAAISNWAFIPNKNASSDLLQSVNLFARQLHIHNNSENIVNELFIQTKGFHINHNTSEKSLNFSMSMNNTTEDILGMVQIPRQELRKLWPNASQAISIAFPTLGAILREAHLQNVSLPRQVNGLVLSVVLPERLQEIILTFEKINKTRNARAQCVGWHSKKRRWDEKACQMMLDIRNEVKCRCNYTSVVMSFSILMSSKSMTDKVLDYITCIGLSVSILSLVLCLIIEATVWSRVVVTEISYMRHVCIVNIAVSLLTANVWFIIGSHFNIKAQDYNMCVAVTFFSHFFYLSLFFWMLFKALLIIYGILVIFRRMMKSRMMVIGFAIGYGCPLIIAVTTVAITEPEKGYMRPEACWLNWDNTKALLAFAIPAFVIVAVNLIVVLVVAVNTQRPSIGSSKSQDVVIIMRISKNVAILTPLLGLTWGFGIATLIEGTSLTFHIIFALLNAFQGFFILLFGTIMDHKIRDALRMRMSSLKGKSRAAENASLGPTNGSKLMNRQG

[7] abbreviates: NMBR (neuromedin B receptor), read-out: % GPCR activation compared to TPA.
[8] abbreviates: CASR (calcium sensing receptor), read-out: % GPCR activation compared to TPA.
The mark [9] stands for this setting: GPCR MC2R (melanocortin 2 receptor), read-out: % GPCR activation compared to TPA.
The mark [10] stands for this setting: GPCR CXCR7 (chemokine (C-X-C motif) receptor 7), read-out: % GPCR activation compared to TPA.
The mark [11] stands for this setting: GPCR GPR115 (G-protein-coupled receptor 115 (ADGRF4)), read-out: % GPCR activation compared to TPA.
Setting [12] is: read-out: % GPCR activation compared to TPA, NMBR (neuromedin B receptor).
Where [13] appears, read: read-out: % GPCR activation compared to TPA, CASR (calcium sensing receptor).
Where [14] appears, read: read-out: % GPCR activation compared to TPA, GPCR MC2R (melanocortin 2 receptor).
[15] abbreviates: read-out: % GPCR activation compared to TPA, GPCR CXCR7 (chemokine (C-X-C motif) receptor 7).
Where [16] appears, read: read-out: % GPCR activation compared to TPA, GPCR GPR115 (G-protein-coupled receptor 115 (ADGRF4)).

T1 sequence (P28336 whole entry): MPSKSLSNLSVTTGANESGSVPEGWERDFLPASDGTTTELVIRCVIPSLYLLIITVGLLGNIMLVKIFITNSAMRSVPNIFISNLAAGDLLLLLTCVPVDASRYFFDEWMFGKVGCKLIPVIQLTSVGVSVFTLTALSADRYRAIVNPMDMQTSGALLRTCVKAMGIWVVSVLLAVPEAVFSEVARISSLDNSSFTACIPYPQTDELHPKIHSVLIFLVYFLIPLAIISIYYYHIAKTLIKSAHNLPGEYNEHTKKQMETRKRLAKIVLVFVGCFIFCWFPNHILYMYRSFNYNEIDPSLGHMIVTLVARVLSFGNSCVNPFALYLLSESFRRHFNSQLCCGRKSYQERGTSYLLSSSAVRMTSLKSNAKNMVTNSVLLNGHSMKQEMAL
T5 sequence (P25106 whole entry): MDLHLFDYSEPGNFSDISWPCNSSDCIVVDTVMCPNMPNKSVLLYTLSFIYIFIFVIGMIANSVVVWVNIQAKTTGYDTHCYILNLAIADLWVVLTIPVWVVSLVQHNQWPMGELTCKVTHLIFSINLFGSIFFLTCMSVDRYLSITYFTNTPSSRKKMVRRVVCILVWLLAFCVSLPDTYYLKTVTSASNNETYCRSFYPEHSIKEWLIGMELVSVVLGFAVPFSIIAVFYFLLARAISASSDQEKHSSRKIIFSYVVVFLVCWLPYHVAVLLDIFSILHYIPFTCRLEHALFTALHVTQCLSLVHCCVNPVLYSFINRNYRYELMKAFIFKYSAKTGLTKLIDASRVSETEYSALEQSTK

Regarding `CC(C)C(=O)OC[C@H]1O[C@@H](n2ccc(NO)nc2=O)[C@H](O)[C@@H]1O` [molnupiravir], the activation at 10 µM in experiment [1] (setting [7]) is 0.279%; in experiment [3] (setting [9]), -0.524%; in experiment [5] (setting [10]), -1.56%; in experiment [6] (setting [11]), -1.43%. Also, the activation at 100 µM in experiment [2] (setting [8]) is -0.137%. Further, in experiment [4], the “% GPCR activation compared to TPA” value was determined as 0.7188%.
With `CC(C)OC(=O)[C@H](C)N[P@](=O)(OC[C@H]1O[C@@H](n2ccc(=O)[nH]c2=O)[C@](C)(F)[C@@H]1O)Oc1ccccc1` [sofosbuvir], the activation at 10 µM in experiment [1] (setting [12]) was -0.697%; in experiment [3] (setting [14]), -3.14%; in experiment [5] (setting [15]), -0.832%; in experiment [6] (setting [16]), -1.19%. Besides, in experiment [2] (setting [13]), the activation at 100 µM was -3.31%. The “% GPCR activation compared to TPA” value in experiment [4] is recorded as -0.8157%.
With `N#C[C@@]1(c2ccc3c(N)ncnn23)O[C@H](CO)[C@@H](O)[C@H]1O` [GS441524], the activation at 10 µM in experiment [1] (setting [7]) is -1.1%; in experiment [3] (setting [9]), -0.688%; in experiment [5] (setting [10]) it was 1.43%; in experiment [6] (setting [11]), -3.61%. Besides, the activation at 100 µM in experiment [2] (setting [8]) is 1.55%. For the same compound, in experiment [4], the “% GPCR activation compared to TPA” value came out at 0.3563%.
Turning to `NC(=O)c1nc(F)cnc1O` [favipiravir, 6-fluoro-3-hydroxy-2-pyrazinecarboxamide], the activation at 10 µM in experiment [1] (setting [7]) was -0.624%. Further, the activation at 100 µM in experiment [2] (setting [8]) is 0.748%; in experiment [3] (GPCR MC2R (melanocortin 2 receptor), 100μM, read-out: % GPCR activation compared to TPA), -0.849%; in experiment [5] (GPCR CXCR7 (chemokine (C-X-C motif) receptor 7), 100μM, read-out: % GPCR activation compared to TPA) it was -1.9%; in experiment [6] (GPCR GPR115 (G-protein-coupled receptor 115 (ADGRF4)), 100μM, read-out: % GPCR activation compared to TPA), -2.79%. In addition, the “% GPCR activation compared to TPA” value in experiment [4] was found to be 1.629%.
Take `CCC(CC)COC(=O)[C@H](C)N[P@](=O)(OC[C@H]1O[C@@](C#N)(c2ccc3c(N)ncnn23)[C@H](O)[C@@H]1O)Oc1ccccc1` [remdesivir]: the activation at 10 µM is 0.461% in experiment [1] (setting [12]), -1.06% in experiment [3] (setting [14]), 0.898% in experiment [5] (setting [15]) and -1.78% in experiment [6] (setting [16]). The activation at 100 µM in experiment [2] (setting [13]) stood at 4.48%. Also, in experiment [4], the “% GPCR activation compared to TPA” value is -2.148%.
